Results from patent US20070253957A1, “Substituted N-Aryl-1H-Pyrazolo[3,4-B]Quinolin-4-Amines and Analogs as Activators of Caspases and Inducers of Apoptosis” (Cytovia, Inc., priority 2004, published 2007).
Like-named read-outs stand apart in the source and are kept apart here.

How the values were obtained:
T-47D [1] = experiment: Caspase cascade activation assay (N-(Ac-DEVD)-N'-ethoxycarbonyl-R110 fluorogenic substrate) in T-47D cells; format: cell-based, Human; details: 24 h incubation; for Caspase Activity Ratio: ratio of net RFU (T=3 h) to that of control samples, 0.16 to 10 μM final; for EC50: sigmoidal dose-response calculation, read-out: Caspase Potency EC50
Protocol: Human breast cancer cell lines T-47D was grown according to media component mixtures designated by American Type Culture Collection+10% FCS (mvitrogen Corporation), in a 5% CO2-95% humidity incubator at 37° C. T-47D and ZR-75-1 cells were maintained at a cell density between 30 and 80% confluency and for HL-60 at a cell density of 0.1 to 0.6×10^6 cells/mL. Cells were harvested at 600×g and resuspended at 0.65×10^6 cells/mL into appropriate media+10% FCS. An aliquot of 45 μL of cells was added to a well of a 96-well microtiter plate containing 5 μL of a 10% DMSO in RPMI-1640 media solution containing 1.6 to 100 μM of 1,3-dimethyl-N-(4-methoxyphenyl)-1H-pyrazolo[3,4-b]quinolin-4-amine or other test compound (0.16 to 10 μM final). An aliquot of 45 μL of cells was added to a well of a 96-well microtiter plate containing 5 μL of a 10% DMSO in RPMI-1640 media solution without test compound as the control sample. The samples were mixed by agitation and then incubated at 37° C. for 24 h in a 5% CO2-95% humidity incubator. After incubation, the samples were removed from the incubator and 50 μL of a solution containing 20 μM of N-(Ac-DEVD)-N′-ethoxycarbonyl-R110 fluorogenic substrate (SEQ ID NO:1) (Cytovia, Inc.; U.S. Pat. No. 6,335,429), 20% sucrose (Sigma), 20 mM DTT (Sigma), 200 mM NaCl (Sigma), 40 mM Na PIPES buffer pH 7.2 (Sigma), and 500 μg/mL lysolecithin (Calbiochem) was added. The samples were mixed by agitation and incubated at room temperature. Using a fluorescent plate reader (Model 1420 Wallac Instruments), an initial reading (T=0) was made about 1-2 min after addition of the substrate solution, employing excitation at 485 nm and emission at 530 nm, to determine the background fluorescence of the control sample. After about 3 h of incubation, the samples were read for fluorescence as above (T=3 h).
The Relative Fluorescence Unit values (RFU) were used to calculate the sample readings as follows: RFU(T=3h)−Control RFU(T=0)=Net RFU(T=3h)
The activity of caspase cascade activation was determined by the ratio of the net RFU value for 1,3-dimethyl-N-(4-methoxyphenyl)-1H-pyrazolo[3,4-b]quinolin-4-amine to that of control samples. The EC50 (nM) was determined by a sigmoidal dose-response calculation (Prism 2.0, GraphPad Software Inc.).

T-47D [2] = experiment: Inhibition of cell proliferation (GI50), CellTiter 96 AQUEOUS One Solution, T-47D cells; format: cell-based, Human; details: 48 h incubation, dose for 50% inhibition of cell proliferation
Protocol: (§1) T-47D and MX1 cells were grown and harvested as in Example 49. An aliquot of 90 μL of cells (2.2×10^4 cells/mL) was added to a well of a 96-well micrQtiter plate containing 10 μl of a 10% DMSO in RPMI-1640 media solution containing […] to 100 μM of 1,3-dimethyl-N-(4-methoxyphenyl)-1H-pyrazolo[3,4-b]quinolin-4-amine (0.1 nM to 10 μM final) or other test compound. An aliquot of 90 μL of cells was added to a well of a 96-well microtiter plate containing 10 μL of a 10% DMSO in RPMI-1640 media solution without compound as the control sample for maximal cell proliferation (AMax). The samples were mixed by agitation and then incubated at 37° C. for 48 h in a 5% CO2-95% humidity incubator. After incubation, the samples were removed from the incubator and 20 μL of CellTiter 96 AQUEOUS One Solution Cell Proliferation™ reagent (Promega) was added. The samples were mixed by agitation and incubated at 37° C. for 2-4 h in a 5% CO2-95% humidity incubator. Using an absorbance plate reader (Model 1420 Wallac Instruments), an initial reading (T=0) was made about 1-2 min after addition of the solution, employing absorbance at 490 nm. This determines the possible background absorbance of the test compounds. No absorbance for 1,3-dimethyl-N-(4-methoxyphenyl)-1H-pyrazolo[3,4-b]quinolin-4-amine was found at 490 nm. After the 2-4 h incubation, the samples were read for absorbance as above (ATest).
(§2) Baseline for GI50 (dose for 50% inhibition of cell proliferation) of initial cell numbers were determined by adding an aliquot of 90 μL of cells or 90 μL of media, respectively, to wells of a 96-well microtiter plate containing 10 μL of a 10% DMSO in RPMI-1640 media solution. The samples were mixed by agitation and then incubated at 37° C. for 0.5 h in a 5% CO2-95% humidity incubator. After incubation, the samples were removed from the incubator and 20 μL of CellTiter 96 AQUEOUS One Solution Cell Proliferation™ reagent (Promega) was added. The samples were mixed by agitation and incubated at 37° C. for 2-4 h in a 5% CO2-95% humidity incubator. Absorbance was read as above, (Astart) defining absorbance for initial cell number used as baseline in GI50 determinations.
(§3) GI50 (dose for 50% inhibition of cell proliferation) is the concentration where [(ATest−Astart)/(AMax−AStart)]=0.5.

MX1 = experiment: Inhibition of cell proliferation (GI50), CellTiter 96 AQUEOUS One Solution, MX1 cells; format: cell-based; details: 48 h incubation, dose for 50% inhibition of cell proliferation
Protocol: as §1, §2, §3

SMILES | Caspase Activity Ratio (T-47D [1]) | EC50 (T-47D [1]; Homo sapiens, T47D) [nM] | GI50 (T-47D [2]; Homo sapiens, T47D) [nM] | GI50 (MX1; Homo sapiens) [nM] | EC50 (T-47D [1]) [nM] | GI50 (T-47D [2]) [nM] | GI50 (MX1) [nM]
COc1ccc(Nc2c3ccccc3nc3c2c(C)nn3C)cc1 [Compound A, 1,3-Dimethyl-N-(4-methoxyphenyl)-1H-pyrazolo[3,4-b]quinolin-4-amine] | 3.8 | 793 | 809 | 800 | – | – | –
COC(=O)c1ccc(Nc2c3ccccc3nc3c2c(C)nn3C)cc1 [Example 4, 1,3-Dimethyl-N-(4-(methoxycarbonyl)phenyl)-1H-pyrazolo[3,4-b]quinolin-4-amine] | 8.6 | 333 | 519 | 500 | – | – | –
CC(=O)c1ccc(Nc2c3c(nc4ccccc24)CCC3)cc1 [Example 11, N-(4-Acetylphenyl)-2,3-dihydro-1H-cyclopenta[b]quinolin-9-amine] | 9.4 | 444 | 300 | 300 | – | – | –
CCC(=O)c1ccc(Nc2c3ccccc3nc3c2c(C)nn3C)cc1 [Example 23, 1,3-Dimethyl-N-(4-propionylphenyl)-1H-pyrazolo[3,4-b]quinolin-4-amine] | 4.2 | 43 | 30 | 30 | – | – | –
CC(=O)c1ccc(Nc2c3cc(C)ccc3nc3c2c(C)nn3C)cc1 [Example 26, N-(4-Acetylphenyl)-1,3,6-trimethyl-1H-pyrazolo[3,4-b]quinolin-4-amine] | 1.1 | > 10000 | > 10000 | > 10000 | – | – | –
CC(=O)c1ccc(Nc2c3cccc(C)c3nc3c2c(C)nn3C)cc1 [Example 29, N-(4-Acetylphenyl)-1,3,8-trimethyl-1H-pyrazolo[3,4-b]quinolin-4-amme] | 4.2 | – | – | – | 663 | 399 | 600
COC(=O)c1ccc(N(C)c2c3ccccc3nc3c2c(C)nn3C)cc1 [Example 30, 1,3-Dimethyl-N-methyl-N-(4-methoxycarbonylphenyl)-1H-pyrazolo[3,4-b]quinolin-4-amine] | 6.6 | 2850 | 4560 | 4000 | – | – | –
COc1ccc(N(C)c2c3ccccc3nc3c2c(C)nn3C)cc1 [Example 31, 1,3-Dimethyl-N-methyl-N-(4-methoxyphenyl)-1H-pyrazolo[3,4-b]quinolin-4-amine] | 9.7 | 4100 | 6100 | > 10000 | – | – | –
CSc1ccc(Nc2c3ccccc3nc3c2c(C)nn3C)cc1 [Example 33, 1,3-Dimethyl-N-(4-methylthiophenyl)-1H-pyrazolo[3,4-b]quinolin-4-amine] | 3.6 | 667 | 500 | 500 | – | – | –
CCC(=O)c1ccc(Nc2c3cccc([N+](=O)[O-])c3nc3c2c(C)nn3C)cc1 [Example 37, 1,3-Dimethyl-8-nitro-N-(4-propionylphenyl)-1H-pyrazolo[3,4-b]quinolin-4-amine] | 4.2 | 435 | 546 | 900 | – | – | –
CCC(=O)c1ccc(Nc2c3cccc(N)c3nc3c2c(C)nn3C)cc1 [Example 38, 8-Amino-1,3-dimethyl-N-(4-propionylphenyl)-1H-pyrazolo[3,4-b]quinolin-4-amine] | 5.1 | 706 | 803 | 2210 | – | – | –
CCC(=O)c1ccc(Nc2c3ccccc3nc3c2c(C)nn3CC)cc1 [Example 42, 1-Ethyl-3-methyl-N-(4-propionylphenyl)-1H-pyrazolo[3,4-b]quinolin-4-amine] | 6.7 | 173 | 100 | 100 | – | – | –
CCC(O)c1ccc(Nc2c3ccccc3nc3c2c(C)nn3C)cc1 (stereo not shown) [Example 43, N-(4-(1-Hydroxypropyl)-phenyl)-1,3-dimethyl-1H-pyrazolo[3,4-b]quinolin-4-amine] | 3.7 | 183 | 140 | 1670 | – | – | –
